Tests used:
HeLa cells = assay: Cytotoxicity in HeLa cells, ATP content (ATPlite kit); conditions: three days incubation, CC50 = 50% concentration for cytotoxicity
Procedure: Black 384-well clear-bottom microtiter plates (Corning, Amsterdam, The Netherlands) were filled via acoustic drop ejection using the echo liquid handler (Labcyte, Sunnyvale, Calif.). 200 nL of compound stock solutions (100% DMSO) were transferred to the assay plates. 9 serial 4-fold dilutions of compound were made, creating per quadrant the same compound concentration. The assay was initiated by adding 10 μL of culture medium to each well (RPMI medium without phenol red, 10% FBS-heat inactivated, 0.04% gentamycin (50 mg/mL). All addition steps are done by using a multidrop dispenser (Thermo Scientific, Erembodegem, Belgium). Next, rgRSV224 virus (MOI=1) diluted in culture medium was added to the plates. rgRSV224 virus is an engineered virus that includes an additional GFP gene (Hallak L K, Spillmann D, Collins P L, Peeples M E. Glycosaminoglycan sulfation requirements for respiratory syncytial virus infection; Journal of virology (2000), 74(22), 10508-13) and was in-licensed from the NIH (Bethesda, Md., USA). Finally, 20 μL of a HeLa cell suspension (3,000 cells/well) were plated. Medium, virus- and mock-infected controls were included in each test. The wells contain 0.05% DMSO per volume. Cells were incubated at 37° C. in a 5% CO2 atmosphere. Three days post-virus exposure, viral replication was quantified by measuring GFP expression in the cells by an in house developed MSM laser microscope (Tibotec, Beerse, Belgium). The EC50 was defined as the 50% inhibitory concentration for GFP expression. In parallel, compounds were incubated for three days in a set of white 384-well microtiter plates (Corning) and the cytotoxicity of compounds in HeLa cells was determined by measuring the ATP content of the cells using the ATPlite kit (Perkin Elmer, Zaventem, Belgium) according to the manufacturer's instructions. The CC50 was defined as the 50% concentration for cytotoxicity.

rgRSV224 virus = assay: microbe, parasite or virus in culture; assay type: cell-based, respiratory syncytial virus (RSV); conditions: for EC50: human respiratory syncytial virus, HeLa, 72 h, read-out: RSV HELA pEC50, rgRSV224 virus (MOI=1), HeLa cells, GFP expression three days post-virus exposure (converted)

Row | SMILES | SI TOX HELA (HeLa cells) | EC50 (rgRSV224 virus) [nM] | RSV HELA pEC50 (rgRSV224 virus; rgRSV224 virus (MOI=1), HeLa cells, GFP expression three days post-virus exposure)
1 | Cc1ccc2ncnc(N3CCCC[C@@H]3c3cc4nc(N5CC[C@H](N)C5)ccn4n3)c2c1 [P50, (S)-1-(2-((R)-1-(6-methylquinazolin-4-yl)piperidin-2-yl)pyrazolo-[1,5-a]pyrimidin-5-yl)pyrrolidin-3-amine] | 4.3 | 631 | –
2 | Cc1cccc2ncnc(N3CCCCC3c3cc4nc(N5CCC5)cc(N5CCN(C(=O)OC(C)(C)C)CC5)n4n3)c12 (stereo not drawn) [P52, tert-butyl4-(5-(azetidin-1-yl)-2-(1-(5-methylquinazolin-4-yl)piperidin-2-yl)pyrazolo[1,5-a]pyrimidin-7-yl)piperazine-1-carboxylate] | 4.7 | 79.4 | –
3 | Cc1cccc2nc(C(N)=O)nc(N3CCCCC3c3cc4nc(N5CCC5)cc(N5CCOCC5)n4n3)c12 (stereo not drawn) [P46, 4-(2-(5-(azetidin-1-yl)-7-morpholinopyrazolo[1,5-a]pyrimidin-2-yl)-piperidin-1-yl)-5-methylquinazoline-2-carboxamide] | 4.3 | 316 | –
4 | Cc1cccc2ncnc(N3CCCC[C@@H]3c3cc4nc(N5CCC5)cc(N5CCOCC5)n4n3)c12 [P18, (R)-4-(5-(azetidin-1-yl)-2-(1-(5-methylquinazolin-4-yl)piperidin-2-yl)-pyrazolo[1,5-a]pyrimidin-7-yl)morpholine] | <4.3 | > 1000 | –
5 | Cc1ccc2ncnc(N3CCCC[C@H]3c3cc4nc(N5CCC(N)C5)ccn4n3)c2c1 (stereo in doubt) [P51, (S)-1-(2-((S)-1-(6-methylquinazolin-4-yl)piperidin-2-yl)pyrazolo-[1,5-a]pyrimidin-5-yl)pyrrolidin-3-amine] | 4.3 | 316 | –
6 | COc1cccc2ncnc(N3CCCCC3c3cc4nc(N5CCC5)cc(N5CCOCC5)n4n3)c12 (stereo not drawn) [P74, 4-(5-(azetidin-1-yl)-2-(1-(5-methoxyquinazolin-4-yl)piperidin-2-yl)-pyrazolo[1,5-a]pyrimidin-7-yl)morpholine] | <4.6 | 15.8 | –
7 | Cc1cn2nc(C3CCCCN3c3nc(Cl)nc4cccc(C)c34)cc2nc1N1CC(O)C1 (stereo not drawn) [P40, 1-(2-(1-(2-chloro-5-methylquinazolin-4-yl)piperidin-2-yl)-6-methylpyrazolo[1,5-a]pyrimidin-5-yl)azetidin-3-ol] | 4.7 | 158 | –
8 | Cc1ccc2nc(C)nc(N3CCCC[C@@H]3c3cc4nc(N5CC(O)C5)c(C)cn4n3)c2c1 [P44, (R)-1-(2-(1-(2,6-dimethyl-quinazolin-4-yl)piperidin-2-yl)-6-methylpyrazolo[1,5-a]pyrimidin-5-yl)azetidin-3-ol] | 4.2 | 794 | –
9 | Cc1ccc2ncnc(N3CCCCC3c3cc4nc(N5CCC(N)C5)ccn4n3)c2c1 (stereo in doubt) [P49, (3S)-1-(2-(1-(6-methylquinazolin-4-yl)piperidin-2-yl)pyrazolo[1,5-a]pyrimidin-5-yl)pyrrolidin-3-amine] | 4.3 | 794 | –
10 | Cc1ccc2nc(NS(C)(=O)=O)nc(N3CCCC[C@@H]3c3cc4nc(N5CCC5)cc(N5CCOCC5)n4n3)c2c1 [P7, (R)—N-(4-(2-(5-(azetidin-1-yl)-7-morpholinopyrazolo[1,5-a]pyrimidin-2-yl)-piperidin-1-yl)-6-methylquinazolin-2-yl)methanesulfonamide] | <4 | 2000 | –
11 | CCOc1nc(N2CCCCC2c2cc3nc(N4CCC4)cc(N4CCOCC4)n3n2)c2c(C)cccc2n1 (stereo not drawn) [P31, 4-(5-(azetidin-1-yl)-2-(1-(2-ethoxy-5-methylquinazolin-4-yl)piperidin-2-yl)pyrazolo[1,5-a]pyrimidin-7-yl)morpholine] | 4.8 | 158 | –
12 | CCOc1nc(N2CCCCC2c2cc3nc(N4CCC4)cc(N4CCOCC4)n3n2)c2cccnc2n1 (stereo not drawn) [P16, 4-(5-(azetidin-1-yl)-2-(1-(2-ethoxypyrido[2,3-d]pyrimidin-4-yl)-piperidin-2-yl)pyrazolo[1,5-a]pyrimidin-7-yl)morpholine] | 4.3 | 79.4 | –
13 | Cc1ccc2nc(NS(C)(=O)=O)nc(N3CCCC[C@H]3c3cc4nc(N5CCC5)cc(N5CCOCC5)n4n3)c2c1 [P8, (S)—N-(4-(2-(5-(azetidin-1-yl)-7-morpholinopyrazolo[1,5-a]pyrimidin-2-yl)piperidin-1-yl)-6-methylquinazolin-2-yl)methanesulfonamide] | <4 | 7.94 | –
14 | Cc1cn2nc(C3CCCCN3c3ncnc4cccc(C)c34)cc2nc1N1CC(O)C1 (stereo not drawn) [P23, 1-(6-methyl-2-(1-(5-methylquinazolin-4-yl)piperidin-2-yl)pyrazolo-[1,5-a]pyrimidin-5-yl)azetidin-3-ol] | <4.6 | 15.8 | –
15 | Cc1ccc2nc(NS(C)(=O)=O)nc(N3CCCCC3c3cc4nc(N5CCC5)cc(N5CCOCC5)n4n3)c2c1 (stereo not drawn) [P6, N-(4-(2-(5-(azetidin-1-yl)-7-morpholinopyrazolo[1,5-a]pyrimidin-2-yl)piperidin-1-yl)-6-methylquinazolin-2-yl)methanesulfonamide] | <4.0 | 5.01 | –
16 | Cc1cc(C)c2c(N3CCCCC3c3cc4nc(N5CCC5)cc(N5CCOCC5)n4n3)ncnc2c1 (stereo not drawn) [P59, 4-(5-(azetidin-1-yl)-2-(1-(5,7-dimethylquinazolin-4-yl)piperidin-2-yl)-pyrazolo[1,5-a]pyrimidin-7-yl)morpholine] | 4.3 | 398 | –
17 | Cc1ccc2ncnc(N3CCCCC3c3cc4nc(N5CC(N)C5)c(C)cn4n3)c2c1 (stereo not drawn) [P13, 1-(6-methyl-2-(1-(6-methylquinazolin-4-yl)piperidin-2-yl)pyrazolo-[1,5-a]pyrimidin-5-yl)azetidin-3-amine] | 4.3 | 398 | –
18 | Cc1ccc2ncnc(N3CCCCC3c3cc4nc(N5CCC5)cc(N5CCOCC5)n4n3)c2c1C (stereo not drawn) [P64, 4-(5-(azetidin-1-yl)-2-(1-(5,6-dimethylquinazolin-4-yl)piperidin-2-yl)-pyrazolo[1,5-a]pyrimidin-7-yl)morpholine] | <4.6 | 15.8 | –
19 | Cc1ccc2nc(Cl)nc(N3CCCCC3c3cc4nc(N5CCC5)cc(N5CCOCC5)n4n3)c2c1 (stereo not drawn) [P5, 4-(5-(azetidin-1-yl)-2-(1-(2-chloro-6-methylquinazolin-4-yl)piperidin-2-yl)pyrazolo[1,5-a]pyrimidin-7-yl)morpholine] | <5 | 251 | –
20 | COC(=O)Nc1nc(N2CCCCC2c2cc3nc(N4CCC4)cc(N4CCOCC4)n3n2)c2c(C)cccc2n1 (stereo not drawn) [P29, methyl (4-(2-(5-(azetidin-1-yl)-7-morpholinopyrazolo[1,5-a]-pyrimidin-2-yl)piperidin-1-yl)-5-methylquinazolin-2-yl)carbamate] | 4.5 | 398 | –
21 | Fc1cccc2ncnc(N3CCCCC3c3cc4nc(N5CCC5)cc(N5CCOCC5)n4n3)c12 (stereo not drawn) [P60, 4-(5-(azetidin-1-yl)-2-(1-(5-fluoroquinazolin-4-yl)piperidin-2-yl)-pyrazolo[1,5-a]pyrimidin-7-yl)morpholine] | 4.3 | 126 | –
22 | CS(=O)(=O)Nc1nc(N2CCCC[C@H]2c2cc3nc(N4CCC4)cc(N4CCOCC4)n3n2)c2cc(Cl)ccc2n1 [P33, (S)—N-(4-(2-(5-(azetidin-1-yl)-7-morpholinopyrazolo[1,5-a]-pyrimidin-2-yl)piperidin-1-yl)-6-chloroquinazolin-2-yl)methanesulfonamide] | 4.2 | – | 7.88
23 | Cc1cccc2nc(C(=O)O)nc(N3CCCCC3c3cc4nc(N5CCC5)cc(N5CCOCC5)n4n3)c12 (stereo not drawn) [P68, 4-(2-(5-(azetidin-1-yl)-7-morpholinopyrazolo[1,5-a]pyrimidin-2-yl)-piperidin-1-yl)-5-methylquinazoline-2-carboxylic acid] | <4.6 | 316 | –
24 | Cc1ccc2nc(C)nc(N3CCCCC3c3cc4nc(N5CC(O)C5)c(C)cn4n3)c2c1 (stereo not drawn) [P42, 1-(2-(1-(2,6-dimethylquinazolin-4-yl)piperidin-2-yl)-6-methyl-pyrazolo[1,5-a]pyrimidin-5-yl)azetidin-3-ol] | <4.6 | 2510 | –
25 | Cc1cccc2nc(O)nc(N3CCCCC3c3cc4nc(N5CCC5)cc(N5CCOCC5)n4n3)c12 (stereo not drawn) [P45, 4-(2-(5-(azetidin-1-yl)-7-morpholinopyrazolo[1,5-a]pyrimidin-2-yl)-piperidin-1-yl)-5-methylquinazolin-2-ol] | 4.2 | 200 | –
26 | Cc1cccc2ncnc(N3CCCCC3c3cc4nc(N5CCC5)cc(N5CCN(C(=O)NC(C)C)CC5)n4n3)c12 (stereo not drawn) [P54, 4-(5-(azetidin-1-yl)-2-(1-(5-methylquinazolin-4-yl)piperidin-2-yl)-pyrazolo[1,5-a]pyrimidin-7-yl)-N-isopropylpiperazine-1-carboxamide] | 4.5 | 25.1 | –
27 | Cc1nc(N2CCCCC2c2cc3nc(N4CC(O)C4)c(C)cn3n2)c2c(C)cccc2n1 (stereo not drawn) [P37, 1-(2-(1-(2,5-dimethylquinazolin-4-yl)piperidin-2-yl)-6-methyl-pyrazolo[1,5-a]pyrimidin-5-yl)azetidin-3-ol] | 4.3 | 316 | –
28 | CCOc1cccc2ncnc(N3CCCCC3c3cc4nc(N5CCC5)cc(N5CCOCC5)n4n3)c12 (stereo not drawn) [P61, 4-(5-(azetidin-1-yl)-2-(1-(5-ethoxyquinazolin-4-yl)piperidin-2-yl)-pyrazolo[1,5-a]pyrimidin-7-yl)morpholine] | <4 | 31.6 | –
29 | Cc1cn2nc([C@@H]3CCCCN3c3ncnc4cccc(C)c34)cc2nc1N1CC(O)C1 [P25, (S)-1-(6-methyl-2-(1-(5-methylquinazolin-4-yl)-piperidin-2-yl)pyrazolo[1,5-a]pyrimidin-5-yl)azetidin-3-ol] | <4.6 | 31.6 | –
30 | FC(F)(F)c1cccc2ncnc(N3CCCCC3c3cc4nc(N5CCC5)cc(N5CCOCC5)n4n3)c12 (stereo not drawn) [P62, 4-(5-(azetidin-1-yl)-2-(1-(5-(trifluoromethyl)quinazolin-4-yl)piperidin-2-yl)pyrazolo[1,5-a]pyrimidin-7-yl)morpholine] | 4.3 | 100 | –
